Experimental data reported in patent US3941795A, “α-ARYL-4-SUBSTITUTED PIPERIDINOALKANOL DERIVATIVES” (Richardson-Merrell Inc., priority 1974, dated 1976).

System: wheals induced by intradermal injections on 1γ of histamine
Test: reduction by 50% of wheals induced by intradermal injections of histamine into guinea pigs (antihistamine)
Assay type: in vivo
Settings: Cavia porcellus, po, 1 h, orally administered one hour prior to the histamine injection, 1γ of histamine intradermal, read-out: ED50 (amount required to reduce by 50% wheals induced by intradermal injections of histamine)
Description: To illustrate the utility of the compounds of this invention the following tabulation indicates the amount of certain representative compounds of this invention required to reduce by 50% wheals induced by intradermal injections on 1γ of histamine into guinea pigs. Each compound was orally administered one hour prior to the histamine injection.

Row | SMILES | ED50 [mg/kg]
1 | COc1ccccc1C(=C1CCN(CCCC(O)c2ccc(C(C)(C)C)cc2)CC1)c1ccccc1 (stereo not drawn) [4-[4-[α-(o-Anisyl)benzylidene]-α-(p-tert-butylphenyl)-1-piperidinebutanol]] | 4.4
2 | CC(C)(C)c1ccc(C(O)CCCN2CCC(C(O)(c3ccccc3)C3CCCCC3)CC2)cc1.Cl (stereo not drawn) [4-(α-cyclohexyl-α-hydroxybenzyl)-α-(p-tert-butylphenyl)-1-piperidinebutanol hydrochloride] | 12
